According to patent publication US20220275391A1, “METHODS OF USING ALS INHIBITOR HERBICIDES FOR CONTROL OF UNWANTED VEGETATION IN ALS INHIBITOR HERBICIDE TOLERANT BETA VULGARIS PLANTS” (priority 2010, published 2022):

Legend:
SB574TL based sugar beet = experiment: Field trial, phytotoxicity scoring on homozygous SB574TL mutant sugar beet; assay type: in vivo, Beta vulgaris; details: BBCH 14
Source text: Based on SB574TL, F4—F6 seeds conferring the mutant allele of the endogenous ALS gene in the homozygous state were applied for further testing.

BERETTA = experiment: Field trial, phytotoxicity scoring on ALS inhibitor sensitive reference variety BERETTA; assay type: in vivo, Beta vulgaris; details: BBCH 14
Source text: (§3) The water quantity applied in the various applications equaled 200 l/ha. At 8, 14, 16, 17, 28, and 31 days (as indicated in the various Tables) after application (DAA) of the respective ALS inhibitor herbicide(s), the damages (phytotoxicity/phyto) on the different sugar beet plants were scored according to the scale from 0% to 100%.
(§4) In this context, “0%” means “no phytotoxicity/phyto” and “100%” means plants were completely killed.

[1] = test system: regenerated plants from foramsulfuron tolerant cell culture (SB574TL); experiment: Greenhouse herbicide treatment of plants regenerated from the foramsulfuron tolerant cell culture
Description: From this clone (SB574TL), shoots were regenerated in presence of the ALS inhibitor herbicide and then the shoots were transferred to MS medium containing 0.05 mg/l Naphthalene acetic acid (NAA).
(§1) During the first 10-15 days after transfer into soil containing substrate the plants were kept in an environment with high air humidity. During and after they were weaned to normal greenhouse air humidity regimes the plants were kept in the greenhouse under artificial light (12 h) at 20+−3° C./15+−2° C. day/night temperatures.
(§2) The herbicide doses tested were equivalent to 7-70 g a.i./ha for foramsulfuron and 1-10 g a.i./ha for iodosulfuron-methyl-sodium.

wild type plants = experiment: Greenhouse herbicide treatment of plants regenerated from wild type cell cultures; details: lowest doses tested (range 7-70 g a.i./ha foramsulfuron, 1-10 g a.i./ha iodosulfuron-methyl-sodium, mixtures 7:1)
Description: as §1, §2

[2] = test system: sugar beet cell cultures (genotype 7T9044); experiment: Selection of sugar beet cell colonies on foramsulfuron medium; assay type: cell-based, Beta vulgaris; details: 3×10^−6 M of foramsulfuron in medium
Source text: Sugar beet cell cultures were initiated from seedlings of a diploid sugar beet genotype 7T9044 (as, for example, described by Alexander Dovzhenko, PhD Thesis, Title: “Towards plastid transformation in rapeseed (Brassica napus L.) and sugarbeet (Beta vulgaris L.)”, Ludwig-Maximilians-Universität München, Germany, 2001). Callus obtained therefrom was exposed to 10^−7 M foramsulfuron. Surviving and growing cell colonies were numbered and transferred after 4-6 weeks onto fresh medium containing 3×10^−7 M of the inhibitor. One of these cell colonies was able to grow not only at this concentration of the inhibitor but even in presence of 3×10^−6 M of foramsulfuron [CAS RN 173159-57-4].

KLARINA = experiment: Field trial, phytotoxicity scoring on ALS inhibitor sensitive reference variety KLARINA; details: BBCH 14
Source text: as §3, §4

With `COc1ncc(F)c2nc(S(=O)(=O)Nc3c(F)cccc3F)nn12` [Florasulam (A3-3), florasulam] the “% phyto” value (SB574TL based sugar beet; 10 g/ha, 8 days (Table 3)) was 0%, the “% phyto” value (SB574TL based sugar beet; 10 g/ha, 16 days) was 0% and the “% phyto” value (SB574TL based sugar beet; 10 g/ha, 38 days) was 0%. The “% phyto” value (BERETTA; 10 g/ha, 8 days) was 80%, the “% phyto” value (BERETTA; 10 g/ha, 16 days) was 98% and the “% phyto” value (BERETTA; 10 g/ha, 38 days) was 98%.
`COc1nn(C(=O)[N-]S(=O)(=O)c2ccccc2OC(F)(F)F)c(=O)n1C.[Na+]` [Flucarbazone-sodium (A2-1), flucarbazone-sodium] was tested, and the “% phyto” value (SB574TL based sugar beet; 40 g/ha, 8 days (Table 3)) was 0%, the “% phyto” value (SB574TL based sugar beet; 40 g/ha, 16 days) was 0% and the “% phyto” value (SB574TL based sugar beet; 40 g/ha, 38 days) was 0%. For the same molecule, the “% phyto” value (BERETTA; 40 g/ha, 8 days) was 80%, the “% phyto” value (BERETTA; 40 g/ha, 16 days) was 89% and the “% phyto” value (BERETTA; 40 g/ha, 38 days) was 89%.
In the case of `COc1cc(OC)nc(NC(=O)NS(=O)(=O)c2cc(NC=O)ccc2C(=O)N(C)C)n1` [Foramsulfuron (A1-13), foramsulfuron], the “tolerance of regenerated plants to herbicide treatment” value ([1]; in vivo) is reported as “tolerated even the highest herbicide doses”, the “effect of herbicide treatment on wild type plants” value (wild type plants) is reported as “killed” and the “growth of selected cell colony (clone SB574TL) in presence of the inhibitor” value [2] is reported as “able to grow”. For the same molecule, the “% phyto” value (KLARINA; 25 g/ha, 8 days) was 85%, the “% phyto” value (KLARINA; 25 g/ha, 14 days) was 83% and the “% phyto” value (KLARINA; 25 g/ha, 28 days) was 86%. The “% phyto” value (KLARINA; 50 g/ha, 8 days) was 90%, the “% phyto” value (KLARINA; 50 g/ha, 14 days) was 92% and the “% phyto” value (KLARINA; 50 g/ha, 28 days) was 94%.
In the case of `CC(C)C1(C)N=C(c2nc3ccccc3cc2C(=O)O)NC1=O` (centres unmarked) [Imazaquin (B1-5), imazaquin], the “% phyto” value (SB574TL based sugar beet; 100 g/ha, 8 days (Table 3)) is reported as 0%, the “% phyto” value (SB574TL based sugar beet; 100 g/ha, 16 days) is reported as 0% and the “% phyto” value (SB574TL based sugar beet; 100 g/ha, 38 days) is reported as 0%. The “% phyto” value (BERETTA; 100 g/ha, 8 days) was 80%, the “% phyto” value (BERETTA; 100 g/ha, 16 days) was 98% and the “% phyto” value (BERETTA; 100 g/ha, 38 days) was 100%.
In the case of `COC(=O)c1ccc(I)cc1S(=O)(=O)[N-]C(=O)Nc1nc(C)nc(OC)n1.[Na+]` [Iodosulfuron-methyl-sodium (A1-16), iodosulfuron-methyl-sodium], the “% phyto” value (SB574TL based sugar beet; 7 g/ha, 8 days) is reported as 0%, the “% phyto” value (SB574TL based sugar beet; 7 g/ha, 14 days) is reported as 0% and the “% phyto” value (SB574TL based sugar beet; 7 g/ha, 28 days) is reported as 0%. For the same molecule, the “% phyto” value (SB574TL based sugar beet; 15 gai/ha, 8 DAA) was 0%, the “% phyto” value (SB574TL based sugar beet; 15 gai/ha, 17 DAA) was 0% and the “% phyto” value (SB574TL based sugar beet; 15 gai/ha, 31 DAA) was 0%. The “tolerance of regenerated plants to herbicide treatment” value ([1]; highest doses tested (range 7-70 g a.i./ha foramsulfuron, 1-10 g a.i./ha iodosulfuron-methyl-sodium, mixtures in the ratio 7:1), greenhouse) was “tolerated even the highest herbicide doses”, the “effect of herbicide treatment on wild type plants” value (wild type plants) was “killed” and the “% phyto” value (KLARINA; 7 g/ha, 8 days) was 90%. The “% phyto” value (KLARINA; 7 g/ha, 14 days) was 97%, the “% phyto” value (KLARINA; 7 g/ha, 28 days) was 100% and the “% phyto” value (KLARINA; 15 gai/ha, 8 DAA) was 83%. The “% phyto” value (KLARINA; 15 gai/ha, 17 DAA) was 98% and the “% phyto” value (KLARINA; 15 gai/ha, 31 DAA) was 100%.
For `COc1cc(OC)nc(NC(=O)NS(=O)(=O)c2ncccc2C(=O)N(C)C)n1` [Nicosulfuron (A1-20), nicosulfuron], the “% phyto” value (SB574TL based sugar beet; 60 g/ha, 8 days) was 0%, the “% phyto” value (SB574TL based sugar beet; 60 g/ha, 14 days) was 0% and the “% phyto” value (SB574TL based sugar beet; 60 g/ha, 28 days) was 0%. For the same molecule, the “% phyto” value (KLARINA; 60 g/ha, 8 days) was 90%, the “% phyto” value (KLARINA; 60 g/ha, 14 days) was 98% and the “% phyto” value (KLARINA; 60 g/ha, 28 days) was 100%.
`COC(=O)c1ccccc1S(=O)(=O)NC(=O)Nc1nc(C)cc(C)n1` [Sulfometuron-methyl (A1-27), sulfometuron-methyl] was tested, and the “% phyto” value (SB574TL based sugar beet; 60 g/ha, 8 days (Table 3)) was 0%, the “% phyto” value (SB574TL based sugar beet; 60 g/ha, 16 days) was 3% and the “% phyto” value (SB574TL based sugar beet; 60 g/ha, 38 days) was 0%. The “% phyto” value (BERETTA; 60 g/ha, 8 days) was 80%, the “% phyto” value (BERETTA; 60 g/ha, 16 days) was 97% and the “% phyto” value (BERETTA; 60 g/ha, 38 days) was 100%.
`COc1nc(C)nc(NC(=O)NS(=O)(=O)c2ccccc2OCCCl)n1` [Triasulfuron (A1-30), triasulfuron] was tested, and the “% phyto” value (SB574TL based sugar beet; 30 g/ha, 8 days (Table 3)) was 0%, the “% phyto” value (SB574TL based sugar beet; 30 g/ha, 16 days) was 0% and the “% phyto” value (SB574TL based sugar beet; 30 g/ha, 38 days) was 0%. The “% phyto” value (BERETTA; 30 g/ha, 8 days) was 80%, the “% phyto” value (BERETTA; 30 g/ha, 16 days) was 98% and the “% phyto” value (BERETTA; 30 g/ha, 38 days) was 100%.
`COc1cc(OC)nc(NC(=O)NS(=O)(=O)c2ncccc2OCC(F)(F)F)n1` [Trifloxisulfuron-sodium (A1-32), trifloxysulfuron] was tested, and the “% phyto” value (SB574TL based sugar beet; 15 g/ha, 8 days (Table 3)) was 0%, the “% phyto” value (SB574TL based sugar beet; 15 g/ha, 16 days) was 0% and the “% phyto” value (SB574TL based sugar beet; 15 g/ha, 38 days) was 0%. The “% phyto” value (BERETTA; 15 g/ha, 8 days) was 80%, the “% phyto” value (BERETTA; 15 g/ha, 16 days) was 98% and the “% phyto” value (BERETTA; 15 g/ha, 38 days) was 100%.
